Structures are written as SMILES. Where only a bound is given, the exact number is not on record here.

The nature of experiment [1]: Inhibitory activity expressed as the concentration required to inhibit platelet-activating factor (PAF) induced maximum aggregation by 50%.
Assay in experiment [2]: as above
This is another data set of the same source.

A word on the IC50: it is the point on the concentration scale where inhibition reaches its midpoint. In turn, `CCCCCCCCCCCCCCC1COC(COCCCCCC[n+]2cccc3ccccc32)C1` (stereo not given) returned a concentration for half-maximal inhibition (IC50) in experiment [1] of 1900 nM. For `CCCCCCCCCCCCCCCCCC1OCC(COCCCC[n+]2ccsc2)O1` (stereo not given), the concentration for half-maximal inhibition (IC50) in experiment [1] was found to be 6000 nM. On the same count and under the same terms, the figure for `CCCCCCCCCCCCCCCCCCOCC1CC(COCCCCC[n+]2ccsc2)CO1` (stereo not given) is 2100 nM. In experiment [1], `CCCCCCCCCCCCCCCCOCC1CC(COCCCCCC[n+]2ccsc2)CO1` (stereo not given) returned an IC50 of 1400 nM. As for `CCCCCCCCCCCCCCCCOCC1OCC(COC(=O)CCCCC[n+]2ccsc2)O1` (stereo not given), the IC50 in experiment [1] was determined as 4900 nM. On the same count and under the same terms, with `CCCCCCCCCCCCCCCC1CCC(COC(=O)CCCCC[n+]2ccsc2)O1` (stereo not given) the figure was 3100 nM. On to `CCCCCCCCCCCCCCCCOCC1COC(COCCCCCC[n+]2ccsc2)C1` (stereo not given), for which the IC50 in experiment [1] is 540 nM. In experiment [1], `CCCCCCCCCCCCCCCCC1COC(COCCCCCCC[n+]2ccsc2)C1` (stereo not given) registered an IC50 of 1700 nM. Turning to `CCCCCCCCCCCCCCCCCCOCC1CC(COC(=O)CCCCC[n+]2ccsc2)CO1` (stereo not given), the IC50 in experiment [1] came out at 1500 nM. For `CCCCCCCCCCCCCCCCCCOCC1OCC(COC(=O)N(Cc2cccc[n+]2CC)C(C)=O)O1` (stereo not given), the IC50 in experiment [1] was 140 nM. In turn, `CCCCCCCCCCCCCCCCOCC1COC(COC(=O)N(C(C)=O)c2ccc[n+](CC)c2)C1` (stereo not given) came in with an IC50 in experiment [1] of 2300 nM. In turn, `CCCCCCCCCCCCCCCCCCOCC1CC(COCCCCCCC[n+]2ccsc2)CO1` (stereo not given) yielded an IC50 in experiment [1] of 3900 nM. Molecule `CCCCCCCCCCCCCCCCCC1CCC(COC(=O)N(Cc2cccc[n+]2CC)C(C)=O)O1` (stereo not given) displayed a concentration for half-maximal inhibition (IC50) in experiment [1] of 71 nM. Consider `CCCCCCCCCCCCCCCCCC1OCC(COP(=O)([O-])OCC[n+]2ccccc2)O1` (stereo not given), for which, in experiment [1], the IC50 is more than 100000 nM. Consider `CCCCCCCCCCCCCCCCCC1OCC(COCCCCCC[N+]2(C)CCOCC2)O1` (stereo not given), for which, in experiment [1], the IC50 turned out to be 10000 nM. `CCCCCCCCCCCCCCC1COC(COP(=O)([O-])OCC[n+]2ccccc2)C1` (stereo not given) yielded an IC50 in experiment [1] of more than 100000 nM. Molecule `CCCCCCCCCCCCCCCCCCOCC1COC(COC(=O)N(Cc2ccc[n+](CC)c2)C(C)=O)C1` (stereo not given) registered an IC50 in experiment [1] of 2500 nM.

In experiment [1], `CCCCCCCCCCCCCCCCCCOCC1COC(COC(=O)N=c2ccn(CC)cc2)C1` (stereo not given) yielded an IC50 of 1900 nM.

As to `CCCCCCCCCCCCCC1OCC(COC(=O)CCCCC[n+]2ccsc2)O1` (stereo not given), in experiment [1], the 50% inhibitory concentration (IC50) was 20000 nM. The same measure, in the same setting: with `CCCCCCCCCCCCCCCCOCC1OCC(COCCCCCC[n+]2ccsc2)O1` (stereo not given) the figure was 1300 nM; with `CCCCCCCCCCCCCCCCOCC1COC(COC(=O)NCCc2cccc[n+]2CC)C1` (stereo not given), 2800 nM; with `CCCCCCCCCCCCCCCCOCC1COC(COC(=O)CCCCC[n+]2ccsc2)C1` (stereo not given), 3600 nM. Consider `CCCCCCCCCCCCCCCCCC1OCC(COCCCCCCCC[n+]2ccsc2)O1` (stereo not given), for which half-maximal inhibition in experiment [1] (IC50) was put at 3700 nM.

As for `CCCCCCCCCCCCCCCC1CCC(COC(=O)N(Cc2cccc[n+]2CC)C(C)=O)O1` (stereo not given), the concentration for half-maximal inhibition (IC50) in experiment [1] came out at 80 nM. For `CCCCCCCCCCCCCCCC1OCC(COC(=O)CCCCC[n+]2ccsc2)O1` (stereo not given), in experiment [1], the concentration for half-maximal inhibition (IC50) was determined as 3000 nM.

On to `CCCCCCCCCCCCCCC1COC(COP(=O)([O-])OCC[n+]2ccsc2)C1` (stereo not given), for which the IC50 in experiment [1] is more than 100000 nM.

In turn, `CCCCCCCCCCCCCCOCC1COC(COCCCCCC[n+]2ccsc2)C1` (stereo not given) had an IC50 in experiment [1] of 1400 nM. Molecule `CCCCCCCCCCCCCCCCOCC1OCC(COC(=O)N(Cc2cccc[n+]2CC)C(C)=O)O1` (stereo not given) yielded an IC50 in experiment [1] of 83 nM. In experiment [1], `CCCCCCCCCCCCCCOCC1COC(COC(=O)N(Cc2cccc[n+]2CC)C(C)=O)O1` (stereo not given) came in with an IC50 of 110 nM. Take `CCCCCCCCCCCCCCCCOCC1CCC(COC(=O)N(Cc2cccc[n+]2CC)C(C)=O)O1` (stereo not given): the half-maximal inhibitory concentration (IC50) in experiment [1] turned out to be 99 nM. For `CCCCCCCCCCCCCCCCCC1OCC(COCCCCCC[n+]2ccsc2)O1` (stereo not given), the IC50 in experiment [1] is 1400 nM. On to `CC1OCC(COC(=O)CCCCC[n+]2ccsc2)O1` (stereo not given), for which, in experiment [1], half-maximal inhibition (IC50) was put at 150000 nM.

In turn, `CCCCCCCCCCCCCCCCCCOCC1COC(COC(=O)N(Cc2cccc[n+]2CC)C(C)=O)O1` (stereo not given) yielded a half-maximal inhibitory concentration (IC50) in experiment [1] of 94 nM.

As to `CCCCCCCCCCCCCCCCCCC1COC(COC(=O)N(Cc2cccc[n+]2CC)C(C)=O)C1` (stereo not given), it took 470 nM to reach half-maximal inhibition in experiment [1] (IC50). Regarding `CCCCCCCCCCCCCCCCOCC1COC(COC(=O)N(Cc2ccccn2)C(C)=O)C1` (stereo not given), 11000 nM corresponded to half-maximal inhibition in experiment [1] (IC50). Same read-out and setting: with `CCCCCCCCCCCCCCCCCCCC1OCC(COC(=O)CCCCC[n+]2ccsc2)O1` (stereo not given) the figure was 5500 nM; with `CCCCCCCCCCCCCCCCOCC1OCC(COCCCC[n+]2ccsc2)O1` (stereo not given), 1200 nM.

`CCCCCCCCCCCCCCCC1CCC(COCCCCCC[n+]2ccsc2)O1` (stereo not given): in experiment [1], the midpoint of inhibition, the IC50, lay at 1300 nM. In turn, `CCCCCCCCCCCCCCCCCCOCC1COC(COC(=O)CCCCC[n+]2ccsc2)C1` (stereo not given) showed a half-maximal inhibitory concentration (IC50) in experiment [1] of 9200 nM. `CCCCCCCCCCCCCCCCCC1COC(COC(=O)N(Cc2cccc[n+]2CC)C(C)=O)O1` (stereo not given) displayed a 50% inhibitory concentration (IC50) in experiment [1] of 24 nM. The molecule `CCCCCCCCCCCCCCCCOCC1COC(COC(=O)N(Cc2cccc[n+]2C)C(C)=O)C1` (stereo not given) displayed a 50% inhibitory concentration (IC50) in experiment [1] of 200 nM. As for `CCCCCCCCCCCCCCCCOCC1COC(COC(=O)N(Cc2cccc[n+]2CC)C(C)=O)C1` (stereo not given), the IC50 in experiment [1] came to 18 nM; in experiment [2] it was 8.2 nM. Regarding `CCCCCCCCCCCCCCC1COC(COCCCCCC[N+](C)(C)C)C1` (stereo not given), half-maximal inhibition in experiment [1] (IC50) required 8200 nM. The same measure, in the same setting: with `CCCCCCCCCCCCCCC1COC(COCCCCCCCC[n+]2ccsc2)C1` (stereo not given) the figure was 1100 nM; with `CCCCCCCCCCCCOCC1COC(COCCCCCCC[n+]2ccsc2)C1` (stereo not given), 1100 nM; with `CCCCCCCCCCCCCCCCOCC1COC(COC(=O)N(C(C)=O)c2cc[n+](CC)cc2)C1` (stereo not given), 860 nM. On to `CCCCCCCCCCCCCCC1COC(COP(=O)([O-])OCC[N+](C)(C)C)C1` (stereo not given), for which the half-maximal inhibitory concentration (IC50) in experiment [1] was more than 200000 nM. For `CCCCCCCCCCCCCCOCC1COC(COCCCCCCC[n+]2ccsc2)C1` (stereo not given), half-maximal inhibition in experiment [1] (IC50) was put at 1700 nM.

In turn, `CCCCCCCCCCCCCCCCCCOCC1COC(COC(=O)N(Cc2cc[n+](CC)cc2)C(C)=O)C1` (stereo not given) displayed an IC50 in experiment [1] of 1600 nM.

As to `CCCCCCCCCCCCCCCCCC1OCC(COCCCCCC[N+](C)(C)C)O1` (stereo not given), in experiment [1], 2400 nM corresponded to half-maximal inhibition (IC50).

Take `CCCCCCCCCCCCCCCCCCOCC1COC(COC(=O)N(Cc2cccc[n+]2CC)C(C)=O)C1` (stereo not given): 52 nM corresponded to half-maximal inhibition in experiment [1] (IC50). Take `CCCCCCCCCCCCCCCCOCC1COC(COC(=O)N(Cc2cccc[n+]2CC)C(=O)OCC)C1` (stereo not given): in experiment [1], the midpoint of inhibition, the IC50, lay at 73 nM. In the case of `CCCCCCCCCCCCCCCCCC1OCC(COCCCCCC[n+]2cscc2C)O1` (stereo not given), in experiment [1], half-maximal inhibition (IC50) required 3100 nM. Turning to `CCCCCCCCCCCCCCCCCC1OCC(COCCCCCC[n+]2cccc3ccccc32)O1` (stereo not given), in experiment [1], it took 2700 nM to reach half-maximal inhibition (IC50). `CCCCCCCCCCCCCCC1COC(COCCCC[n+]2ccsc2)C1` (stereo not given) registered an IC50 in experiment [1] of 39000 nM. `CCCCCCCCCCCCCCC1COC(COCCCCCCC[n+]2ccsc2)C1` (stereo not given) returned an IC50 in experiment [1] of 830 nM.

In experiment [1], `CCCCCCCCCCCCCCCCOCC1COC(COC(=O)NCc2cccc[n+]2CC)C1` (stereo not given) displayed a concentration for half-maximal inhibition (IC50) of 5300 nM.

Molecule `CCCCCCCCCCCCCCCCOCC1COC(COC(=O)N(CCc2cccc[n+]2CC)C(C)=O)C1` (stereo not given) displayed an IC50 in experiment [1] of 2600 nM. The same measure, in the same setting: the figure for `CCCCCCCCCCCCCCC1COC(COCCCCCC[n+]2ccsc2)C1` (stereo not given) is 2100 nM; for `CCCCCCCCCCCCCCCCCC1OCC(COP(=O)([O-])OCC[N+](C)(C)C)O1` (stereo not given) it is more than 100000 nM; for `CCCCCCCCCCCCCCCCCCOCC1COC(COC(=O)NCc2cc[n+](CC)cc2)C1` (stereo not given) it is 8000 nM. As for `CCCCCCCCCCCCCCCCOCC1COC(COC(=O)N(Cc2cccc[n+]2CC)C(C)=O)O1` (stereo not given) [2-{[Acetyl-(4-hexadecyloxymethyl-[1,3]dioxolan-2-ylmethoxycarbonyl)-amino]-methyl}-1-ethyl-pyridinium; chloride], the results for the IC50 in experiment [1] and in experiment [2] were 19 nM and 15 nM, respectively. Regarding `CCCCCCCCCCCCCCCCCC1OCC(COCCCCCC[n+]2ccccc2)O1` (stereo not given), the IC50 in experiment [1] is 3000 nM. Turning to `CCCCCCCCCCCCCCOCC1COC(COC(=O)N(Cc2cccc[n+]2CC)C(C)=O)C1` (stereo not given), the IC50 in experiment [1] amounted to 85 nM. With `CCCCCCCCCCCCCCCCCC1OCC(COC(=O)N(Cc2cccc[n+]2CC)C(C)=O)O1` (stereo not given), the half-maximal inhibitory concentration (IC50) in experiment [1] turned out to be 210 nM. In the case of `CCCCCCCCCCCCCCCCCC1OCC(COC(=O)CCCCC[n+]2ccsc2)O1` (stereo not given), the half-maximal inhibitory concentration (IC50) in experiment [1] stood at 1100 nM. With `CCCCCCCCCCCCCCC1COC(COC(=O)CCCCC[n+]2ccsc2)C1` (stereo not given), in experiment [1], the IC50 was more than 50000 nM. In experiment [1], `CCCCCCCCCCCCCCC1COC(COC(=O)N(Cc2cccc[n+]2CC)C(C)=O)C1` (stereo not given) gave a half-inhibitory concentration (IC50) of 140 nM.

(Values after BindingDB's records for doi:10.1021/jm00105a058 (J. Uriach & Cía., 1991).)
